We go through 13 molecules from paper PMC8157947, “Peptidic boronic acids are potent cell-permeable inhibitors of the malaria parasite egress serine protease SUB1” (Proceedings of the National Academy of Sciences of the …, 2021).

Data set [1] relates to asexual blood-stage P. falciparum (clone 3D7). Details: method as in PMID 22543039, PMID 25129616. The conditions noted are these: earlier work; cited from earlier work.
The target of data set [2] is T1, recombinant PfSUB1 (rPfSUB1) (Plasmodium falciparum, UniProt Q8I0V0).
T1 construct: Chymotrypsin-treated rPfSUB1 (expressed and purified as described previously); made in house
T1 sequence (Q8I0V0 218-688): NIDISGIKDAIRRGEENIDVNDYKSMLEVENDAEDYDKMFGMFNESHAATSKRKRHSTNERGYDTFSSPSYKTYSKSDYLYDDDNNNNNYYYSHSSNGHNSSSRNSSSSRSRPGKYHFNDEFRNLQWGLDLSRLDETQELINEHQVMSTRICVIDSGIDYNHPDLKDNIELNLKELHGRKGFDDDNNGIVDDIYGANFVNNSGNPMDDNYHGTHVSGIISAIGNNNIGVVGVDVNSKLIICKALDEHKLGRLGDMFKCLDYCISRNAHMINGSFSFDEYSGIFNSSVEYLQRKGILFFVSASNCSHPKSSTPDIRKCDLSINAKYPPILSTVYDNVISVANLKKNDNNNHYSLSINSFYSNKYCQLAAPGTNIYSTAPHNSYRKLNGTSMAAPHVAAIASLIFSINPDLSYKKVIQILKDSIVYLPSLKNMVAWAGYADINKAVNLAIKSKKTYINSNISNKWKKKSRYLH
The conditions noted are these: cited from earlier work.

Data set [3] has as its system P. falciparum 3D7 schizonts. The experiment in a line: Short-term egress/invasion assay, ring formation by flow cytometry. The conditions noted are these: for EC50: Plasmodium falciparum, mature 3D7 schizonts with RBCs, 4 h, flow cytometry. The class given is cell-based, Plasmodium falciparum. The protocol:
For this, P. falciparum cultures containing synchronous, highly mature schizonts were supplemented with compounds 3b, 3e, 3i, and 3j at a range of dilutions, then allowed to undergo egress and invasion for just 4 h in the continued presence of the compounds, before assessing formation of newly invaded “ring” stage parasites by flow cytometry.
(§1) Short-term egress, invasion, and washout assays were performed essentially as described previously ([27], [28], [42]). Briefly, highly synchronous mature Percoll-enriched schizonts with or without added fresh RBCs (∼5% parasitaemia final) were incubated with compounds under test or vehicle only (DMSO, 1% vol/vol). For washout assays, schizonts were treated with C2 or various concentrations of inhibitor 3j for 1 to 4 h, then washed extensively (at least four times) prior to addition to fresh RBCs where required. After incubation at 37 °C for just 1 to 4 h (or overnight for invasion assays) to allow schizont rupture, cells were pelleted. Clarified culture supernatants were assessed for extent of hemoglobin release (a measure of schizont rupture) by absorption spectroscopy at 415 nm as described previously ([28]) or analyzed by Western blot using antibodies against SERA5 ([7], [11]). To quantify generation of new rings, samples of the cultures were fixed with 4% paraformaldehyde/0.02% glutaraldehyde and stained with SYBR Green I (Life Technologies) and then analyzed by flow cytometry on a BD FACSVerse using BD FACSuite software. Data were analyzed using FlowJo software. All cultures were also routinely analyzed by microscopic examination of Giemsa-stained thin films to visually assess parasite morphology.
For orientation: Flow cytometry measures light scatter and fluorescence of single cells or particles in a stream.

Data set [4] deals with T1, recombinant PfSUB1 (rPfSUB1). Put plainly: rPfSUB1 fluorogenic peptide substrate cleavage inhibition assay. Format: biochemical. The text has this: We previously described the development of a fluorescence-based in vitro assay suitable for the evaluation of substrate-based PfSUB1 inhibitors, using recombinant PfSUB1 (rPfSUB1) and fluorogenic peptide substrates based on cleavage sites within endogenous protein substrates of PfSUB1 ([13], [21]). […] This was perhaps unsurprising due to the high molecular mass and polar nature of these compounds, including the presence of a carboxylic acid moiety that was designed to mimic endogenous PfSUB1 protein substrates by interacting with the basic S’ surface of the PfSUB1 active-site cleft ([16]). Collectively, these features likely rendered the compounds poorly membrane penetrant.
Fluorescence of this peptide is quenched by rhodamine dimerization in the intact substrate but increases upon cleavage at the internal Q-D bond. Chymotrypsin-treated rPfSUB1 (expressed and purified as described previously ([16]) was stored at −80 °C as a 228 U/mL stock in 20 mM Tris–HCl pH 8.2, 150 mM NaCl, 10% glycerol, and diluted for use (1:500 or 1:600) in reaction buffer (20 mM Tris–HCl pH 8.2, 150 mM NaCl, 12 mM CaCl2, 25 mM CHAPS). Peptidic boronic acid inhibitors were dissolved in 100% DMSO at 10 or 20 mM, then further diluted in DMSO to generate stock solutions ranging from 500 to 0.01 μM and then used diluted 1:100 in the enzyme reactions. All reactions were performed in wells of white 96-well microwell plates (Nunc); 50 μL diluted rPfSUB1 was preincubated for 5 min with 1 μL each of the serially diluted boronic acid inhibitors, followed by addition of 50 μL substrate solution (0.1 μM final). Subsequent fluorescence increase was continuously monitored using a SpectraMax M5e plate reader and SoftMax Pro-6.3 software, with readings taken every 5 min for 60 min using excitation and emission values of 552 and 580 nm, respectively. […] All experiments were performed in duplicate.

The test system of data set [5] is asexual blood-stage P. falciparum (clone 3D7). Put plainly: SYBR Green I parasite growth assay. The class given is cell-based, Plasmodium falciparum. The conditions noted are these: for EC50: Plasmodium falciparum, 3D7, 96 h, two erythrocytic growth cycles, SYBR Green I. The protocol: The impact of the peptidic boronic acids on replication of asexual blood-stage P. falciparum (clone 3D7) was assessed using a SYBR Green I assay, essentially as described by Smilkstein et al. ([22]). Briefly, test compounds (dissolved in dimethyl sulfoxide [DMSO] at concentrations ranging from 4 mM to 5 μM) were added in triplicate to wells of flat bottomed, 96-well microtitre plates (1 μL per well). Wells were then supplemented with 100 μL per well of a P. falciparum parasite culture at 0.1% parasitaemia, 1% hematocrit. Each assay plate also included DMSO-only control wells (1% vol/vol), as well as additional control wells containing uninfected RBCs only. Plates were incubated in sealed, humidified gassed chambers at 37 °C for 96 h to allow the parasites to undergo two entire cycles of erythrocytic growth. Wells were then supplemented with 100 μL 1:5,000 dilution of stock SYBR Green I (Life Technologies, catalog no. S7563) diluted in 20 mM Tris HCl pH 7.5, 5 mM EDTA, 0.008% (weight/vol) saponin, 0.08% (vol/vol) Triton ×100. Plates were agitated to mix, incubated for a further 1 h in the dark at room temperature, then 150 μL samples from each well transferred to a fresh white microwell plate and fluorescence quantified using a SpectraMax M5e plate reader and SoftMax Pro-6.3 software (Ex 485 nm/Em 530 nm). IC50 values were determined from dose–response curves obtained after subtracting background fluorescence values (obtained from the RBC-only wells) from all experimental readings.

On the set-up of data set [6]: method as in PMID 30117017. The conditions noted are these: cited from earlier work.
Data set [7] concerns PfSUB1-mediated proteolytic processing of SERA5. Put plainly: Western blot of SERA5 processing after washout. Format: cell-based, Plasmodium falciparum. The conditions noted are these: 4 h pretreatment then washout. An excerpt: To seek unambiguous confirmation that PfSUB1 is the intracellular target of compound 3j, we examined the effects of the compound on the PfSUB1-mediated proteolytic processing of the established endogenous PfSUB1 substrate SERA5, an abundant parasite PV protein that only becomes accessible to cleavage upon discharge of PfSUB1 into the PV in the minutes leading up to egress and is then released in a processed form into culture supernatants ([6], [11], [12]). […] It was concluded that compound 3j prevents egress and parasite proliferation through direct inhibition of intracellular PfSUB1.
Short-term egress, invasion, and washout assays were performed essentially as described previously ([27], [28], [42]). […] Clarified culture supernatants were assessed for extent of hemoglobin release (a measure of schizont rupture) by absorption spectroscopy at 415 nm as described previously ([28]) or analyzed by Western blot using antibodies against SERA5 ([7], [11]). To quantify generation of new rings, samples of the cultures were fixed with 4% paraformaldehyde/0.02% glutaraldehyde and stained with SYBR Green I (Life Technologies) and then analyzed by flow cytometry on a BD FACSVerse using BD FACSuite software. Data were analyzed using FlowJo software. All cultures were also routinely analyzed by microscopic examination of Giemsa-stained thin films to visually assess parasite morphology.
On the technique in general: A western blot detects proteins with antibodies after separation by electrophoresis.

For the next data set, the system named is P. falciparum schizonts. Put plainly: Ring formation after pretreatment of schizonts and washout. Format: cell-based, Plasmodium falciparum. The conditions noted are these: pretreated schizonts washed, fresh RBCs, assessed at 24 h; 3j 10 μM, C2 1 μM. Here is the method:
as §1

Data set [8] concerns P. falciparum schizonts expressing EXP2-mNeonGreen. Put plainly: Time-lapse video microscopy of egress after compound washout. The conditions noted are these: 1 μM. The class given is cell-based, Plasmodium falciparum.
Setting [9] is: fluorogenic peptide substrate, mean ± SD of at least three measurements, read-out: IC50 (nM) (rPfSUB1).

Structures are written as SMILES. “And” between values parts separate entries of the source, which are not always exact repeats. Equal entries are not always repeated. “Also recorded” adds a separate entry of the source. Where two headings read alike, the source gives them in different places.

Regarding `CC(=O)N[C@H](C(=O)N[C@H](C(=O)NCC(=O)NC(C)C(=O)C(=O)NCCC(=O)O)[C@@H](C)O)C(C)C` (stereo partly shown) [compound 1], the “antiparasite activity in vitro / parasite growth assay” value in [1] was “no antiparasite activity in vitro; also recorded: no activity in parasite growth assay”. The IC50 in [2] (Table S1) was 0.9 ± 0.2 µM; in data set [2] (earlier work) it was roughly 0.9 µM.
In the case of `CC(=O)N[C@H](C(=O)N[C@H](C(=O)NCC(=O)N[C@H]1CCOB1O)[C@@H](C)O)C1CCCC1` [3e], the results for the EC50 in data set [3] and in data set [5] were 15.7 ± 2.5 µM and 15 ± 3.6 µM, respectively. In addition, the IC50 in data set [4] (setting [9]) was 4.6 ± 0.1 nM.
Consider `CC(=O)N[C@H](C(=O)N[C@H](C(=O)NCC(=O)N[C@H]1CCCOB1O)[C@@H](C)O)C1CCCC1` [3f], for which the IC50 in [4] (setting [9]) turned out to be 204 ± 7.5 nM.
Regarding `CC(=O)N[C@H](C(=O)N[C@@H](C)C(=O)NCC(=O)N[C@@H](C)B(O)O)C1CCCC1` [3i], in data set [3] (10 μM, 4 h incubation), the “schizont phenotype in Giemsa-stained thin films” value is listed as “arrest of unruptured schizonts with no ring formation”. Besides, the EC50 in data set [3] was determined as 2 ± 0.1 µM; in data set [5] it was 0.34 ± 0.08 µM. For the same molecule, the IC50 in [4] (setting [9]) was ~7.8 nM and 7.8 nM. In [5] (relative to compound 3b), the “improved growth inhibitory potency” value is reported as roughly 10 fold.
For `CC(=O)N[C@H](C(=O)N[C@H](C(=O)NCC(=O)NC(C)C(=O)C(=O)NCCC(=O)O)[C@@H](C)O)C1CCCC1` (stereo partly shown) [2a], the IC50 is 400 nM in [4] (IC50(PfSUB1), Fig. 1); ~370 nM and 370 nM in data set [4] (IC50 (nM) (rPfSUB1), fluorogenic peptide substrate, mean ± SD of at least three measurements). In [4] (read-out: degree of rPfSUB1 inhibition at 10 µM (%)), the inhibition at 10 µM amounted to 97%. Further, the “activity in parasite growth assay” value in data set [5] is listed as “no activity in parasite growth assay”.
As to `CC(=O)NC(C(=O)NC(C(=O)NCC(=O)NC(C)B(O)O)C(C)O)C1CCCC1` (stereo not shown) [3b], the EC50 is 12.7 ± 0.8 µM in data set [3] and 2.3 ± 1.4 µM in [5]. For the same molecule, the IC50 in data set [4] (setting [9]) worked out at 9.3 ± 0.5 nM.
Take `CC(=O)N[C@H](C(=O)N[C@H](C(=O)NCC(=O)NCB(O)O)[C@@H](C)O)C1CCCC1` [3d]: the IC50 in [4] (setting [9]) came out at 54.3 ± 1.1 nM. The molecule further gave an EC50 in [5] of 1.9 ± 0.4 µM.
With `CC(C)C[C@H](NC(=O)CNC(=O)c1cc(Cl)ccc1Cl)B(O)O` [ixazomib], in [6], the terminal half-life was roughly 228 h.
In the case of `CC(=O)N[C@H](C(=O)N[C@H](C(=O)NCC(=O)N[C@H]1CCC(=O)OB1O)[C@@H](C)O)C1CCCC1` [3g], in data set [4] (setting [9]), the IC50 was determined as 18.7 ± 1.3 nM.
For the molecule `CCC(C)[C@H](NC(C)=O)C(=O)N[C@H](C(=O)NCC(=O)N[C@@H](C)B(O)O)[C@@H](C)O` (stereo partly shown) [3a], the IC50 in data set [4] (setting [9]) worked out at 69.4 ± 1.2 nM. In data set [5], this molecule displayed an EC50 of 1.8 ± 0.6 µM.
Turning to `CC(=O)N[C@H](C(=O)N[C@H](C(=O)NCC(=O)NC(B(O)O)c1ccccc1)[C@@H](C)O)C1CCCC1` (stereo partly shown) [3h], the IC50 in data set [4] (setting [9]) came to 112 ± 2.3 nM.
Consider `CN(C)Cc1ccn2c(-c3ccnc(N)n3)c(-c3ccc(F)cc3)nc2c1` [C2, 4-[7-[(dimethylamino)methyl]-2-(4-fluorphenyl)imidazo[1,2-α]pyridine-3-yl]pyrimidin-2-amine, reference compound], for which the SERA5 proteolytic processing result in [7] is “blocked”. For the same molecule, in the data set on P. falciparum schizonts, the “ring production after washout” value is given as “produced rings efficiently”. Besides, in data set [8], the “time of egress initiation following washout” value was roughly 6.5 min.
With `CC(=O)N[C@H](C(=O)N[C@H](C(=O)NCC(=O)N[C@H](C)B(O)O)[C@@H](C)O)C1CCCC1` [3c], in data set [4] (setting [9]), the IC50 was 60.1 ± 2.1 nM. Further, the EC50 in [5] is 18.4 ± 1.8 µM.

In general, IC50 refers to the point on the concentration scale where inhibition reaches its midpoint. Usually EC50 stands for the concentration needed to bring the measured effect to its halfway point. Low values mean an effect from little substance, high ones a need for much substance. One may read the inhibition as the percentage by which the read-out fell short of the control.
